This passage reports MIC results from patent publication US20230203081A1, “LINCOSAMIDE ANTIBIOTICS AND USES THEREOF” (President and Fellows of Harvard College, priority 2020, published 2023).

≈ marks a conversion by molar mass, not a printed value. Where two headings read alike, the source gives them in different places.

Holding throughout (assay type): cell-based
One test concerns S. aureus ATCC 29213. The test can be described thus: MIC (broth microdilution or agar dilution, CLSI). The note with it: Staphylococcus aureus, ATCC29213, S. aureus ATCC 29213; read-out: MIC. The essentials: (§1)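 Inoculum for broth microdilution was 5×10^5 CFU/mL final, prepared from overnight 35° C blood-agar subcultures (separate handling for streptococcal and anaerobic strains); MICs read by CLSI broth microdilution or agar dilution.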
Background: Dilution methods test growth across graded concentrations, often in twofold steps.

For the next test, the system named is E. coli ATCC 25922. The test can be described thus: MIC (broth microdilution or agar dilution, CLSI). The note with it: Escherichia coli. The method in brief:
as §1

The test system of the next test is S. pyogenes ATCC 19615. Briefly: MIC (broth microdilution or agar dilution, CLSI). To be noted: Streptococcus pyogenes, ATCC19615, S. pyogenes ATCC 19615; read-out: MIC. The method in brief: as §1
A further test relates to E. coli MP-9 ΔTolC. Briefly: MIC (broth microdilution or agar dilution, CLSI). To be noted: Escherichia coli. The method in brief: as §1
Another test deals with S. pneumoniae ATCC 49619. The test can be described thus: MIC (broth microdilution or agar dilution, CLSI). The note with it: Streptococcus pneumoniae, ATCC49619, S. pneumoniae ATCC 49619; read-out: MIC. The essentials:
as §1

In another test the test system is E. faecalis ATCC 29212. The test can be described thus: MIC (broth microdilution or agar dilution, CLSI). The note with it: Enterococcus faecalis, ATCC29212, E. faecalis ATCC 29212; read-out: MIC. The essentials:
as §1

A further test concerns H. influenzae ATCC 49247. Briefly: MIC (broth microdilution or agar dilution, CLSI). To be noted: Haemophilus influenzae, ATCC49247. The essentials:
as §1

The subject of test [1] is E. coli MP-74 LptD mutant. Briefly: MIC (broth microdilution or agar dilution, CLSI). The note with it: Escherichia coli. The essentials: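 MICs were measured by CLSI broth microdilution or agar dilution over 128-0.06 μg/mL test compound at 2.5% final DMSO, in triplicate. Non-streptococcal, aerobic strains were grown overnight at 35° C on sheep blood agar, suspended in cation-adjusted Mueller-Hinton broth to 0.5 McFarland, and diluted to 5×10^5 CFU/mL.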

Another test concerns S. aureus MMX 3035 cErmA. Briefly: MIC (broth microdilution or agar dilution, CLSI). To be noted: Staphylococcus aureus, MMX3035CERMA; S. aureus MMX 3035 cErmA; read-out: MIC. The essentials: as §1
Test [2] relates to S. pyogenes MMX 946; cErmB. The test can be described thus: MIC (broth microdilution or agar dilution, CLSI). The note with it: Streptococcus pyogenes; S. pyogenes MMX 946; cErmB; read-out: MIC. The essentials:
as §1

For test [3], the system named is S. pneumoniae MMX 3028 cErmB. Briefly: MIC (broth microdilution or agar dilution, CLSI). To be noted: Streptococcus pneumoniae, MMX3028CERMB; S. pneumoniae MMX 3028 cErmB; read-out: MIC. The method in brief:
as §1

The subject of test [4] is E. faecalis MMX 847; cErmB. Briefly: MIC (broth microdilution or agar dilution, CLSI). To be noted: Enterococcus faecalis; E. faecalis MMX 847; cErmB; read-out: MIC. The method in brief:
as §1

The test system of test [5] is S. pneumoniae MMX 3031 cMefA. Briefly: MIC (broth microdilution or agar dilution, CLSI). To be noted: Streptococcus pneumoniae, MMX3031CMEFA, S. pneumoniae MMX 3031 cMefA; read-out: MIC. The method in brief: as §1
A further test relates to S. aureus BAA 977 iErmA. The test can be described thus: microbe, parasite or virus in culture. To be noted: Staphylococcus aureus, BAA977. The essentials:
as §1

For a further test, the system named is S. aureus MP-549 msrA. Briefly: microbe, parasite or virus in culture. The note with it: Staphylococcus aureus, MP549MSRA, S. aureus MP-549 msrA. The essentials: as §1
Setting [6] is: ATCC25922, E. coli ATCC 25922, read-out: MIC.
Setting [7] is: H. influenzae ATCC 49247, read-out: MIC.

Regarding `CSC1O[C@H]([C@H](NC(=O)[C@@H]2[C@@H]3OCC[C@@H](C4CCCCC4)C[C@H]3CN2C)[C@H](C)Cl)CC(O)[C@H]1O` (stereo partly shown) [FSA-513002b], the MIC came out at 0.5 µg/mL (≈ 0.963 µM) with S. aureus ATCC 29213; 128 µg/mL (≈ 247 µM) in the test with E. coli ATCC 25922 (setting [6]); 0.25 µg/mL (≈ 0.482 µM) in the test with S. pyogenes ATCC 19615; 8 µg/mL (≈ 15.4 µM) in the test on E. coli MP-9 ΔTolC; 0.25 µg/mL (≈ 0.482 µM) in the test with S. pneumoniae ATCC 49619; 0.5 µg/mL (≈ 0.963 µM) in the test with E. faecalis ATCC 29212. For the same compound, the values for the MIC (in the test on H. influenzae ATCC 49247 (setting [7]); in test [1]) were 8 µg/mL (≈ 15.4 µM) and 16 µg/mL (≈ 30.8 µM), respectively.

In the case of `CSC1O[C@H]([C@H](NC(=O)[C@@H]2[C@@H]3OCC[C@H](CC(C)C)C[C@H]3CN2C)[C@H](C)Cl)CC(O)[C@H]1O` (stereo partly shown) [FSA-513003a], the MIC with S. aureus MMX 3035 cErmA was determined as 16 µg/mL (≈ 32.4 µM); with S. aureus ATCC 29213, 0.12 µg/mL (≈ 0.243 µM); in the test with E. coli ATCC 25922 (setting [6]), 32 µg/mL (≈ 64.9 µM); in [2], 8 µg/mL (≈ 16.2 µM); in test [3], 8 µg/mL (≈ 16.2 µM); in the test with S. pyogenes ATCC 19615 it was 0.06 µg/mL (≈ 0.122 µM). For the same compound, the MIC is 8 µg/mL (≈ 16.2 µM) in test [4]; 1 µg/mL (≈ 2.03 µM) with E. coli MP-9 ΔTolC; 0.06 µg/mL (≈ 0.122 µM) with S. pneumoniae ATCC 49619; 0.12 µg/mL (≈ 0.243 µM) in the test with E. faecalis ATCC 29212; ≤ 0.06 µg/mL in test [5]; 2 µg/mL (≈ 4.06 µM) with H. influenzae ATCC 49247 (setting [7]). The values for the MIC (in test [1]; against S. aureus BAA 977 iErmA; against S. aureus MP-549 msrA) were 2 µg/mL (≈ 4.06 µM), 0.12 µg/mL (≈ 0.243 µM) and 0.12 µg/mL (≈ 0.243 µM), respectively.

As for `CSC1O[C@H]([C@H](NC(=O)[C@@H]2[C@@H]3OCC[C@H](CC(C)(C)C)C[C@H]3CN2C)[C@H](C)Cl)CC(O)[C@H]1O` (stereo partly shown) [FSA-513004a], the MIC is 1 µg/mL (≈ 1.97 µM) in the test with S. aureus ATCC 29213; > 128 µg/mL in the test with E. coli ATCC 25922 (ATCC25922, E. coli ATCC 25922); 0.25 µg/mL (≈ 0.493 µM) in the test on S. pyogenes ATCC 19615; > 128 µg/mL in the test on E. coli MP-9 ΔTolC; 0.5 µg/mL (≈ 0.986 µM) with S. pneumoniae ATCC 49619; 1 µg/mL (≈ 1.97 µM) in the test on E. faecalis ATCC 29212. Moreover, the MIC (in the test with H. influenzae ATCC 49247; in [1]) was 128 µg/mL (≈ 252 µM) in each case.

In the case of `CSC1O[C@H]([C@H](NC(=O)[C@H]2NC[C@@H]3C[C@@H](CC(C)C)CCO[C@H]32)[C@H](C)Cl)CC(O)[C@H]1O` (stereo partly shown) [FSA-513018a], the MIC in the test with S. aureus MMX 3035 cErmA was 8 µg/mL (≈ 16.7 µM); with S. aureus ATCC 29213 it was ≤ 0.06 µg/mL; with E. coli ATCC 25922 (setting [6]), 16 µg/mL (≈ 33.4 µM); in test [2], 0.5 µg/mL (≈ 1.04 µM); in test [3], 0.5 µg/mL (≈ 1.04 µM); with S. pyogenes ATCC 19615 it was ≤ 0.06 µg/mL. Further, the MIC in test [4] is 2 µg/mL (≈ 4.17 µM); against E. coli MP-9 ΔTolC it was 0.5 µg/mL (≈ 1.04 µM); in the test on S. pneumoniae ATCC 49619, ≤ 0.06 µg/mL; in the test with E. faecalis ATCC 29212, ≤ 0.06 µg/mL; in test [5], ≤ 0.06 µg/mL; with H. influenzae ATCC 49247 (setting [7]) it was 2 µg/mL (≈ 4.17 µM). In addition, the MIC is 2 µg/mL (≈ 4.17 µM) in test [1], ≤ 0.06 µg/mL in the test with S. aureus BAA 977 iErmA and ≤ 0.06 µg/mL in the test with S. aureus MP-549 msrA.
